The target of one experiment is PTPN11 (Homo sapiens, UniProt Q06124). In words: PELSA compared with LiP-MS, SHP099-treated HeLa cell lysate. The format is binding.
Experiment [1] deals with T1, PTGES2 (Homo sapiens, UniProt Q9H7Z7). In words: Western blotting of undigested PTGES2 after trypsin digestion. The format is binding. Set-up: collect the supernatant as the cell lysate; endogenous in cells; host or cells: BT474 cell lysate. The procedure:
To validate the binding of PTGES2 and lapatinib, we performed Western blotting using a similar procedure and conditions as mentioned above, with the following modifications: The lysis buffer is PBS. After lysis, the resulting cell lysates were divided into 8 portions and treated with equal volumes of lapatinib at different final concentrations (lapatinib dissolved in DMSO), as well as DMSO, resulting in final lapatinib concentrations of 100 μM, 50 μM, 10 μM, 1 μM, 0.1 μM, 0.01 μM, 0.001 μM, and 0. The mixtures were incubated at room temperature (25° C.) for 30 minutes. After incubation, trypsin was added at a 1:40 protease-to-protein weight ratio, and the mixture was subjected to digestion at 37° C. for 1 minute. The digestion was terminated by heating the samples to 95° C., followed by the addition of ¼ volume of 5*loading buffer, and heating at 95° C. for another 5 minutes. Western blotting was employed to detect the undigested proteins. The gel was concentrated at 80 V for 20 minutes, and then separated at 120 V for 60 minutes. Transfer blotting was conducted at a constant current of 250 mA for 40 minutes. After blocking, the primary antibody against PTGES2 (Proteintech, USA) was added at a 1:800 dilution and incubated at room temperature for 1 hour. […] The undigested protein bands were quantified based on their intensities, using GAPDH as a reference protein. […]

Experiment [2] addresses T2, ERBB2 (Homo sapiens, UniProt P04626). Particulars: cited from earlier work.
The target of experiment [3] is T2, ERBB2. The experiment can be described thus: PELSA, lapatinib-treated BT474 cell lysate. The class given is binding.
Experiment [4] concerns CHEK2, SLK, RIPK2, and YES1. In words: PELSA, lapatinib-treated BT474 cell lysate, off-target kinases. The class given is binding. Particulars: increased lapatinib concentration (1 μM and above).
For experiment [5], the target named is T1, PTGES2. In words: PELSA, lapatinib-treated BT474 cell lysate, non-kinase off-target. The note with it: high concentrations of lapatinib.
Description: (1) Take a dish of BT474 cells (approximately 5e7 cells) and resuspend them in 1 mL lysis buffer (PBS supplemented with 1% (v/v) protease inhibitor (Sigma, catalog number P8340-5 mL)). Freeze-thaw the mixture three times (freeze in liquid nitrogen for two minutes, thaw in a 37° C. water bath for two minutes, repeat three times) to obtain crude cell lysates. Centrifuge the crude cell lysates at 500 g, 4° C. for 10 minutes, and collect the supernatant as the cell lysate. Determine the protein concentration using the Pierce™ 660 nm Protein Assay (Thermo, USA).
(2) Adjust the protein concentration of the cell lysate to 1 mg/mL using cell lysis buffer. […]
(6) The above-mentioned peptide mixture was reconstituted in 20 μL of 0.1% (v/v) formic acid (Sigma, Catalog No. V900803) and subjected to LC-MS/MS analysis. Each sample was analyzed once using data-independent acquisition (DIA) mass spectrometry. The Spectronaut software was used to identify and quantify the peptides, providing information on the corresponding protein, the peptide's location within the protein, and its abundance in each sample.
(7) The abundance of peptides in the lapatinib-treated and untreated groups was statistically evaluated using Empirical Bayes t-test to determine the P-value and fold change for each peptide, representing the significance and magnitude of the peptide's abundance change upon lapatinib treatment. […]
The subject of experiment [6] is metal ion-binding proteins in HeLa cell lysate. The experiment can be described thus: PELSA, zinc chloride-treated HeLa cell lysate. Particulars: 30 μM zinc chloride. The protocol: After cell lysis following the procedure described in Example 1, the added EDTA was removed using Zeba Spin desalting columns (Thermo Fisher Scientific) through two rounds of protein desalting. A final concentration of 30 μM zinc chloride (Sigma, catalog number 450111-10G) was added to the 50 μL cell lysate, serving as the experimental group. Proteins meeting the criteria of −log 10Pvalue>3 and log 2FC<−0.5 were considered as proteins stabilized by Zn2+.

The test system is the same in experiment [7]. In words: PELSA, zinc chloride-treated HeLa cell lysate. The note with it: −log 10Pvalue>6 and log 2FC>0.
For experiment [8], the system named is kinases in K562 and HeLa lysates.
Description: (§3) We further compared the protein and peptide coverage depths of LiP-Quant, TPP, and PELSA.
Experiment [9] concerns kinases in HeLa cell lysates. The note with it: kinase proportion ≥80%; cited from earlier work.
For experiment [10], the system named is kinases in K562 cell lysates. The note with it: cited from earlier work.
In experiment [11] the test system is kinases in HeLa cell lysate. The note with it: 20 μM staurosporine.
Description: as §3
In experiment [12] the test system is kinases in K562 cell lysate. In words: PELSA, staurosporine-treated K562 cell lysate. The note with it: 20 μM staurosporine. The class given is binding.
Description: as §3
The subject of experiment [13] is LARS1, LARS2, GLUD1, and SENS2. In words: PELSA, leucine-treated K562 cell lysate, known targets. The class given is binding. Particulars: 5 mM leucine. The source says:
(§1) These findings indicate the ability of PELSA to differentiate between distinct binding sites on a single protein. […] SLC1A5 is a membrane protein comprising intracellular, transmembrane, and extracellular regions. The Na-dicarboxylate_symporter domain (residues 54-483), located in the extracellular region, plays a key role in amino acid transport.

The target of another experiment is T3, SLC1A5 (Homo sapiens, UniProt Q15758).
T3 construct: Protein-level volcano plot corresponding to 5 mM leucine-treated K562 cell lysates; endogenous in cells; host or cells: K562 cell lysate
T3 sequence (Q15758 1-541): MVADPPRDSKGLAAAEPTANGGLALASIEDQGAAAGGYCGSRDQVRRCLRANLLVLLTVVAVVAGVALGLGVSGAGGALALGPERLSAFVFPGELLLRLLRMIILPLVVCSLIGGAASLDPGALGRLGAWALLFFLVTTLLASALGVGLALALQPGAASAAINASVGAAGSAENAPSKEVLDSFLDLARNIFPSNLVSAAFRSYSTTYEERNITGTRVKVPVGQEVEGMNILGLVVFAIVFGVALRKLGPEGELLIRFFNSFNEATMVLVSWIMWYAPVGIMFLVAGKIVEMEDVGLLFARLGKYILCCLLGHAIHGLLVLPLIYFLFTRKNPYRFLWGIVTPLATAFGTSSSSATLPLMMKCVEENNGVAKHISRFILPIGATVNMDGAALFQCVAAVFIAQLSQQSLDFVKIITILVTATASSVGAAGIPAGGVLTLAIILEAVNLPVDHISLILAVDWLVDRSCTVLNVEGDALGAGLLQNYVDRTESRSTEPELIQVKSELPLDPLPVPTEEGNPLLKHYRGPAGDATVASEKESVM
The experiment can be described thus: PELSA, leucine-treated K562 cell lysate, SLC1A5. The class given is binding. The note with it: 5 mM leucine.
Description: as §1

For a further experiment, the system named is PPIP5K1 and PPIP5K2. The experiment can be described thus: PELSA, leucine-treated K562 cell lysate, PPIP5K1/2. The format is binding. Particulars: 5 mM leucine, histidine phosphatase domains.
Description: as §1

For the next experiment, the target named is LARS1 (Homo sapiens, UniProt Q9P2J5). The note with it: Kim S, et al., Cell Reports, 2021; read-out: dissociation constant, leucine-LARS1; cited from earlier work.
Experiment [14] concerns proteins of Escherichia coli. Particulars: Piazza I et al., Cell, 2018; cited from earlier work.
A further experiment concerns the target T4, AKR1C2 (Homo sapiens, UniProt P52895).
T4 construct: made in house
T4 sequence (P52895 1-323): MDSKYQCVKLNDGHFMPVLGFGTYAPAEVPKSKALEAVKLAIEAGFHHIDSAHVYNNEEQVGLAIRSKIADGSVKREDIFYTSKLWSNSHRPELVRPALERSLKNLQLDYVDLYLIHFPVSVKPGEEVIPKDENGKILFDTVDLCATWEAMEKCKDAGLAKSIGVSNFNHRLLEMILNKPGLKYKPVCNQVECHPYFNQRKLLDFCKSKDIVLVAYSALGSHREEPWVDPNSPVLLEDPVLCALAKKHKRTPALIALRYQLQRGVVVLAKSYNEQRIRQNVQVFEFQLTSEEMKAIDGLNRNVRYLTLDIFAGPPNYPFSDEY
In words: thermal shift assay with purified AKR1C2. Particulars: purified protein. The class given is binding. The text has this:
(§2) HSP90 proteins consist of three domains: the N-terminal ATP-binding domain, the middle domain, and the C-terminal domain. […] This finding further supports the capability of PELSA to accurately identify protein regions with changes in energy state. In addition to known target proteins, PELSA also identified several off-target proteins. […] PRDX family proteins play a protective role by clearing ROS under oxidative stress conditions.

For the next experiment, the system named is MAT2A and AKR1C2. The experiment can be described thus: dimethyl labeling-based PELSA, MAT2A and AKR1C2. The class given is binding. Particulars: 100 μM.
In another experiment the target is T5, MAT2A (Homo sapiens, UniProt P31153).
T5 construct: made in house
In words: thermal shift assay with purified MAT2A. The format is binding. Particulars: purified protein.
Description: as §2

T1 sequence (Q9H7Z7 whole entry): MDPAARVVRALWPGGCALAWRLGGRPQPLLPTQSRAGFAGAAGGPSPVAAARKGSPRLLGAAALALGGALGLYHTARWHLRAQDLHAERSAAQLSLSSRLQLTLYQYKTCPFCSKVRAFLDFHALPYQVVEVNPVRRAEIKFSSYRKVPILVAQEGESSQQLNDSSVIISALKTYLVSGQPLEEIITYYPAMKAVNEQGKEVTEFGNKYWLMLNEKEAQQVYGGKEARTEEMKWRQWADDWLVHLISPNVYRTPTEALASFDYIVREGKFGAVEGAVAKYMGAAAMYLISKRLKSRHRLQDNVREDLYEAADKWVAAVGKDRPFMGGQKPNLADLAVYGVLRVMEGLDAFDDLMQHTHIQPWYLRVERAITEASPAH
T2 sequence (P04626 23-1255): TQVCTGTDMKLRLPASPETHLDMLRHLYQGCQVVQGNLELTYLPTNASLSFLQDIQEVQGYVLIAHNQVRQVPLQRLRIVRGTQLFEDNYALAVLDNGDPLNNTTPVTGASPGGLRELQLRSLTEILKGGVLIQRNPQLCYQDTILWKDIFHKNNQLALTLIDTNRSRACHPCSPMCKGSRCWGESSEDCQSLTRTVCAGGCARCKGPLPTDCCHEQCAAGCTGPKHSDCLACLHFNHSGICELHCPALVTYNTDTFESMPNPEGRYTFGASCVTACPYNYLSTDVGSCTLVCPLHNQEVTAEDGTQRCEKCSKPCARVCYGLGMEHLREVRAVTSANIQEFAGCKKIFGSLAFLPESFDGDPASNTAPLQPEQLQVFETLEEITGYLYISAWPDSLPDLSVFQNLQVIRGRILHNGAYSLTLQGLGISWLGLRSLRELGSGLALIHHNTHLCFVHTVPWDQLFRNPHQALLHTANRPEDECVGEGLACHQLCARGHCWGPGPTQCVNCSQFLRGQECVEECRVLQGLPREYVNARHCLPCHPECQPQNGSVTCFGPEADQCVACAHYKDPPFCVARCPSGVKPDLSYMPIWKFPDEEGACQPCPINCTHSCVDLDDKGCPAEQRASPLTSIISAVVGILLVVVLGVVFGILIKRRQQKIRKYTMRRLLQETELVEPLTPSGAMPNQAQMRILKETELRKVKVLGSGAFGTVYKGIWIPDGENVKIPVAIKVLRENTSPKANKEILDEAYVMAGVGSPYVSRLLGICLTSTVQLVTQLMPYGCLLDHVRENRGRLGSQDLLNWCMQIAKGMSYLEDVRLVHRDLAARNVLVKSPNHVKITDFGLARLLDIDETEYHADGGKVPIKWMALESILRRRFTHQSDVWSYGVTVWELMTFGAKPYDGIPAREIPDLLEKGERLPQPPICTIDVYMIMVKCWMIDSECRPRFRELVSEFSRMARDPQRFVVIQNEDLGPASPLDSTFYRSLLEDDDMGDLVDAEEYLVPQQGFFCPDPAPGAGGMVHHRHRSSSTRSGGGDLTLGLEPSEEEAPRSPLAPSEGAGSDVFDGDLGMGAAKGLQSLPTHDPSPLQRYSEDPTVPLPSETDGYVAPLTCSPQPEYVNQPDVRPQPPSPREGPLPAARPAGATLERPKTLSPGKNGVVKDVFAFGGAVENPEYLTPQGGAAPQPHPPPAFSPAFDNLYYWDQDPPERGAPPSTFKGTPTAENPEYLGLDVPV
T5 sequence (P31153 whole entry): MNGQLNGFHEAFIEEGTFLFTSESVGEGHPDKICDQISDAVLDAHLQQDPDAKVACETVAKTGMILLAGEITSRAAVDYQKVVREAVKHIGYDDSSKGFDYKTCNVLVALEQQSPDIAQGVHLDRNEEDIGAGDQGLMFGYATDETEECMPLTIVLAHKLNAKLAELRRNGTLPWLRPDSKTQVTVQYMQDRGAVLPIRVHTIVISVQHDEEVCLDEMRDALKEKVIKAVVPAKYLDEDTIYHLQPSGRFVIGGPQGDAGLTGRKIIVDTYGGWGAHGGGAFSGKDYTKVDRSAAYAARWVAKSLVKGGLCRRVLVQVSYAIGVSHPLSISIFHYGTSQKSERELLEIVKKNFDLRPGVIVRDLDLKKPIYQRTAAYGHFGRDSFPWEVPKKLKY
Chain of LARS1 (Q9P2J5 whole entry, species assumed): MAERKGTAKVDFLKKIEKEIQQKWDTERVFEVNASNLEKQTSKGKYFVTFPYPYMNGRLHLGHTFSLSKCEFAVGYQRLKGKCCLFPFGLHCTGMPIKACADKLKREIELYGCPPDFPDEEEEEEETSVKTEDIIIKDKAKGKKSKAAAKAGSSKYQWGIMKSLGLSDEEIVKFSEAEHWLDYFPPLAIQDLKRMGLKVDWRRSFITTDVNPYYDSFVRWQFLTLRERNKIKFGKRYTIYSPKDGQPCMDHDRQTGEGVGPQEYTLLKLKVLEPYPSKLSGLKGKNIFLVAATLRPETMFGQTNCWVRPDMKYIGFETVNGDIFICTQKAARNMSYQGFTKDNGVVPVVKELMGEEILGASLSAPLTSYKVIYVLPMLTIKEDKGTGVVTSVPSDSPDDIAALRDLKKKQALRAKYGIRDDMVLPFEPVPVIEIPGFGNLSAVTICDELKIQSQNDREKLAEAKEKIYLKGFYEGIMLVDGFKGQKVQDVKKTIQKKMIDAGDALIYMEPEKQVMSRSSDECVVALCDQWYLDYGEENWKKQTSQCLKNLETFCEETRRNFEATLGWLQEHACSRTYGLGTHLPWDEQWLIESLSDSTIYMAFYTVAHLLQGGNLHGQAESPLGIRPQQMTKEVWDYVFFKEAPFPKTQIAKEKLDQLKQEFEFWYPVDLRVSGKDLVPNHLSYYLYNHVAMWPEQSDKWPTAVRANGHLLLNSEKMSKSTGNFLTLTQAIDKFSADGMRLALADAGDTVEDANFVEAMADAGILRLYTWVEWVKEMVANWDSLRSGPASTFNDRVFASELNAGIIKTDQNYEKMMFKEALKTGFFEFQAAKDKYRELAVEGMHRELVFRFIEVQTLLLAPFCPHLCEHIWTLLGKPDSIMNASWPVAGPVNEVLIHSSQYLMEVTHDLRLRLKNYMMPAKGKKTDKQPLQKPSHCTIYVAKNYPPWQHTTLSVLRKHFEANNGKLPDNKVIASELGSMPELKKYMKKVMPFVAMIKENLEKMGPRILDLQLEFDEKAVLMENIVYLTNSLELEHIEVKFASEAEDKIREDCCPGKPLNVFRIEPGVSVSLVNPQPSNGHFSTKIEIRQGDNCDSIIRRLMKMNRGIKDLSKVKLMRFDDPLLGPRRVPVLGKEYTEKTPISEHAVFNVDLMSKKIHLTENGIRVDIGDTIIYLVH

Regarding SHP099, the “fold change of PTPN11 peptide at the SHP099-binding site” value at PTPN11 (10 μM SHP099) is listed as “exhibited fold changes exclusively in PELSA experiments”. At PTPN11 (10 μM SHP099, HeLa cell lysate), the “number of SHP099-responsive PTPN11 peptides, PELSA relative to LiP-MS” value was 5.25 times and the “response magnitude of PTPN11 peptides to SHP099, PELSA relative to LiP-MS” value is recorded as 6.4 times.
Take `CS(=O)(=O)CCNCc1ccc(-c2ccc3ncnc(Nc4ccc(OCc5cccc(F)c5)c(Cl)c4)c3c2)o1` [lapatinib]: the “lapatinib concentration at which maximum PTGES2 protection was reached” value at PTGES2 [1] (Western blotting) is 50 µM. Also, the “PTGES2 protected from digestion (Western blot band intensity)” value on PTGES2 [1] (lapatinib 0.001-100 μM, trypsin 1:40, 37° C. 1 minute) is listed as “increasing amount of PTGES2 protein protected from digestion”. Moreover, the “affinity of lapatinib to ERBB2” value on ERBB2 [2] is “approximately 9 nM”. Moreover, on ERBB2 [3] (100 nM lapatinib, |log 2(fold change)|>0.3 & −log 10(P value)>2), the “location of significantly altered ERBB2 peptides” value is reported as “only within or in close proximity to the kinase domain”. Moreover, the “resistance to proteolysis of peptides within the kinase domain of ERBB2” value at ERBB2 [3] (lapatinib 100 μM, 10 μM and 1 μM) is recorded as “more resistant to proteolysis”. The “energy state changes of other kinases” value in experiment [4] is “energy state changes in several other kinases such as CHEK2, SLK, RIPK2, and YES1”. Besides, at PTGES2 [5], the “energy state change of PTGES2” value is “exhibited changes in its energy state”.
Take `[Cl-].[Cl-].[Zn+2]` [Zn2+, zinc chloride]: in experiment [6], the “Zn2+-binding proteins containing zinc finger motifs” value is on record as 60, the “stability of 26S proteasome regulatory subunits PSMC1-6” value was “destabilization in the components of the 26S proteasome regulatory subunits”, the “stabilized Zn2+-binding proteins” value stood at 112 and the “stabilized known Ca2+-binding proteins” value worked out at 25. In experiment [6], the “stabilized known Fe2+-binding proteins” value came to 15, the “stabilized known Mg2+-binding proteins” value was found to be 20, the “stabilized known Mn2+-binding proteins” value was determined as 9 and the “stabilized known binding proteins of other metal ions” value is on record as 6. In addition, in experiment [6], the “stabilized proteins that are known binding proteins of other metal ions” value amounted to 73 and the “stabilized proteins that are known metal ion-binding proteins” value came to 185. Also, the “number of proteins stabilized by Zn2+” value in [6] (−log 10Pvalue>3 and log 2FC<−0.5) is on record as 280. For the same molecule, the “proportion of known metal ion-binding proteins among stabilized proteins” value in [6] (19% in entire identified proteome) was “more than 66%”. Also, the “stability of proteins containing IQ motifs” value in [7] is given as “destabilization in several proteins containing IQ motifs”.
As for `CN[C@@H]1C[C@H]2O[C@@](C)([C@@H]1OC)n1c3ccccc3c3c4c(c5c6ccccc6n2c5c31)C(=O)NC4` [staurosporine], in experiment [8] (K562 and HeLa), the “proportion of kinases among all target proteins” value was 80% and the “total staurosporine target proteins in the two cell lines” value is 192. The “significantly changed peptides located within or within 10 residues of kinase domains” value in experiment [8] (both K562 and HeLa lysates) is recorded as “over 92%”. For the same molecule, in experiment [9], the “number of kinase targets identified by LiP-Quant” value was 9. Moreover, in experiment [10], the “number of kinase targets identified by TPP” value is listed as 53 and the “total number of target proteins identified by TPP” value is recorded as 60. Moreover, in [11], the “total number of target proteins identified” value is recorded as 135. Moreover, the “total number of target proteins identified” value in experiment [12] was 143.
For `CC(C)C[C@H](N)C(=O)O` [leucine], the “energy state changes of LARS1, LARS2, GLUD1, SENS2” value in experiment [13] is reported as “significant changes in the energy states”. The “energy state change of SLC1A5” value at SLC1A5 was “significant changes in the energy state of SLC1A5”. Moreover, the “stabilization of PPIP5K1 and PPIP5K2” value in the experiment with PPIP5K1 and PPIP5K2 was “stabilized PPIP5K1 and PPIP5K2”. Moreover, the Kd on LARS1 is 95 µM.
For the molecule alpha-ketoglutarate [αKG], in experiment [14], the “previously known αKG-binding proteins among LiP-MS targets” value is 2 and the “target proteins identified by LiP-MS” value is on record as 34.
For the molecule `CC(C)c1cc(-c2n[nH]c(=O)n2-c2ccc3c(ccn3C)c2)c(O)cc1O` [ganetespib], the “thermal melting temperature / stabilization of AKR1C2” value on AKR1C2 is recorded as “significantly increased”. For the same molecule, the “off-target proteins MAT2A and AKR1C2” value with MAT2A and AKR1C2 was “two previously-unreported off-target proteins of ganetespib, namely MAT2A and AKR1C2”. Also, the “thermal melting temperature of MAT2A” value at MAT2A is “significantly increased”.

The record behind these values is US20240410898A1, “METHOD FOR DETECTING PROTEIN HAVING CHANGES IN ENERGY STATE, OR AFFINITY OF LIGAND TO PROTEIN” (DALIAN INSTITUTE OF CHEMICAL PHYSICS, CHINESE ACADEMY OF …, priority 2022, published 2024).
